# Legend:
# [1] = transplant recipients; cited from earlier work
# [2] = test system: T cells; conditions: relative to CsA; cited from earlier work
# [3] = Tacrolimus blood trough level in the rhesus recipient; format: in vivo, rhesus macaque (Macaca mulatta); conditions: subcutaneously twice per day
# Method: Beginning five days prior to delivery of the cell therapy composition and continuing for 16 weeks after delivery, the rhesus recipient was treated daily with tacrolimus and MMF. Tacrolimus was provided subcutaneously twice per day at a dose yielding a blood trough level of approximately 5-10 ng/mL. MMF was provided orally twice per day, for a total dose of 250 mg MMF per day. If a subject cannot tolerate oral dosing of MMF, MMF can be alternatively provided by intravenous administration. In some cases, if a subject cannot tolerate oral MMF, the subject is administered intravenous MMF until the subject can tolerate oral MMF, at which point the subject is switched from intravenous to oral MMF Immune rejection of the riPSC-CMs 16 weeks after delivery was determined by histopathological analysis.
SMILES,Safety profile relative to MMF [1],Therapeutic equivalence to MMF [1],"Concentrations giving similar effects to CsA, times lower [2]",Blood trough level [3]
"COc1c(C)c2c(c(O)c1C/C=C(\C)CCC(=O)[O-])C(=O)OC2.[Na+] [MS, mycophenolate sodium]",comparable safety profile,therapeutically equivalent to MMF,,
"C=CC[C@@H]1/C=C(\C)C[C@H](C)C[C@H](OC)[C@H]2O[C@@](O)(C(=O)C(=O)N3CCCC[C@H]3C(=O)O[C@H](/C(C)=C/[C@@H]3CC[C@@H](O)[C@H](OC)C3)[C@H](C)[C@@H](O)CC1=O)[C@H](C)C[C@@H]2OC [Tacrolimus, tacrolimus]",,,100 times,5 to 10 ng/mL

# From patent publication US20220296572A1, “IMMUNOSUPPRESSIVE THERAPIES FOR USE WITH CARDIOMYOCYTE CELL THERAPIES, AND ASSOCIATED METHODS AND COMPOSITIONS” (Sana Biotechnology, Inc., priority 2021, published 2022)
